Experimental data published in patent publication US20250163072A1, “MACROCYCLIC COMPOUNDS FOR THE TREATMENT OF CANCER” (Hoffmann-La Roche Inc., priority 2021, published 2025).
Read-outs that look alike come from different tables or passages of the source.

Assays:
[1] = GSH reaction rates (inherent GSH reactivity); type: in vitro ADME
Experimental: (§1) Therefore Strategy to minimize the GSH metabolism is very critical. Short T1/2 in inherent GSH reaction indicated high GSH reaction rate. Thus T1/2 in inherent GSH reaction assay was determined for the screening of candidates. Reference compounds and compounds of this invention potentially could form conjugation with GSH either through halogenated moieties substitution reaction or direct Michael addition reaction. This test was therefore performed to check GSH reactivity of listed compounds. For inherent GSH reactivity determination, compounds at 1 μM were incubated at 37° C. with and without 5 mM GSH for 0, 0.5, 1, 2, 4 and 6 h in 100 mM potassium phosphate buffer at pH 7.4. At the end of the designated time points, samples were quenched with acetonitrile containing 10 mM N-ethylmaleimide and an internal standard. Quenched samples were centrifuged, and supernatants were analyzed by LC-MS/MS for compound quantification.

[2] = system: GSH; experiment: GSH reaction rates (inherent GSH reactivity); type: in vitro ADME; conditions: buffer, pH 7.4
Experimental: as §1

[3] = system: KRAS G12C in NCI-H358 cells; experiment: pERK inhibition assay, NCI-H358; type: cell-based, human; conditions: 4 hours incubation
In short: (§2)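 NCI-H358, AGS and SW620 cells in RPMI-1640/10% FBS were plated overnight, then exposed to compound (0.5% DMSO final) for 4 h. After fixation and permeabilization, phospho-ERK was quantified by in-cell ELISA (HRP secondary, TMB, OD450); IC50 from a 4-parameter sigmoidal fit.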

[4] = system: KRAS G12D in AGS cells; experiment: pERK inhibition assay, AGS; type: cell-based, human; conditions: 4 hours incubation
In short: as §2

[5] = system: KRAS G12V in SW620; experiment: pERK inhibition assay, SW620; type: cell-based, human; conditions: 4 hours incubation
In short: as §2

[6] = system: NCI-H358 cells; experiment: Cell viability assay, NCI-H358; type: cell-based, human; conditions: NCI-H358, 72 hours, Cell Counting Kit-8, read-out: G12C IC50
In short: (§3)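 Cells were plated at 5,000 (NCI-H358) or 2,000 (AGS, SW620) per well and incubated overnight. They were then treated with compound in 0.5% DMSO for 72 h. Viability was read with CCK-8 as OD450 minus OD650 after 2 h, and IC50 came from a 4-parameter sigmoidal fit.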

[7] = system: AGS cells; experiment: Cell viability assay, AGS; type: cell-based, human; conditions: 72 hours, Cell Counting Kit-8, read-out: G12D IC50
In short: as §3

[8] = system: SW620 cells; experiment: Cell viability assay, SW620; type: cell-based, human; conditions: Cell Counting Kit-8, read-out: G12V IC50
In short: as §3

[9] = Human hepatocytes stability assay; type: in vitro ADME; conditions: for CL_hep (Human): 1 μM compound, human hepatocytes 1×10^6 cells/mL
Experimental: The hepatocyte stability assay measures the rate of disappearance of a compound from incubations with cryopreserved suspension hepatocytes from human. Positive controls, including Midazolam, Raloxifene and Dextromethorphan, are included in every experiment. Incubations consist of 1 μM tested compound and suspension of human hepatocytes (1×10^6 cells/mL) in supplemented Williams' E Medium with […] and 0.5% Penicillin-streptomycin. The hepatocyte suspension was incubated with intermittent shaking 900 rpm at 37° C., in a 5% CO2 incubator. The reaction was stopped by adding methanol containing internal standard (2 μM Tolbutamide) at 2, 10, 20, 40, 60 and 120 minutes after compound addition, depletion of the parent compound was monitored by LC-MS/MS analysis.

[10] = target: T1, KRAS G12C-BRAF complex (Homo sapiens (Human), UniProt P01116+P62937, G12C); experiment: KRAS G12C-BRAF NanoBit assay; type: cell-based; conditions: HEK293 cells, SmBit-KRAS G12C and BRAF RBD-LgBit, 3 hours incubation
Experimental: This assay is to measure the ability of tested compounds in disruption of the KRAS G12C-BRAF complex at the cellular level, we established the NanoBit cellular assay in mammalian HEK293 (ATCC) cells. HEK293 cells were grown and maintained using DMEM medium (Thermo Fisher Scientific) with 10% fetal bovine serum and 1% penicillin/streptomycin. Both KRAS G12C and BRAF RBD were cloned into the NanoBit vectors ([…] vectors system, Promega) with the orientations SmBit-KRAS G12C and BRAF RBD-LgBit, respectively, and co-transfected into HEK293 cells. Cells were then selected with 100 μg/mL Hygromycin B (10687010, Thermo Fisher) and Blasticidin (5 μg/mL) for 4 weeks to get the stable cell pool. On the day of the assay, 75 nL of compound solution was presented in a 384-well assay plate as a 16-point 3-fold dilution starting from a final concentration of 30 μM in DMSO. Then cells were seeded at 10,000 cells/25 μL/well in a 384-well plate. After 3 hours of incubation, 6 μL of volume of Nano-Glo® Live Cell Substrate (Promega) was added into each well. Monitor luminescence using ultra384 model in Envision at 20 minutes. Compounds that facilitate disruption of the KRAS G12C-BRAF RBD complex were identified as those eliciting a decrease of luminescence relative to DMSO control wells.

[11] = target: T1, KRAS G12C-BRAF complex; experiment: KRAS-BRAF with CYPA (50 nM) interaction assay (TR-FRET), G12C; type: binding; conditions: GMPPNP loaded 6His-KRAS, GST-BRAF RBD
Experimental: (§4) In this example, TR-FRET was also used to measure the compound or compound-CYPA dependent disruption of the KRAS G12C-BRAF complex. This protocol was also used to measure disruption of KRAS G12D or KRAS G12V binding to BRAF by a compound of the invention, respectively. In assay buffer containing 25 mM HEPES PH=7.4 (4-(2-hydroxyethyl)-1-piperazineethanesulfonic acid, Thermo, 15630080), 0.002% Tween20, 0.1% BSA, 100 mM NaCl, 5 mM MgCl2, 10 μM GMPPNP (Guanosine 5'-[β,γ-imido]triphosphate trisodium salt hydrate, Sigma, G0635), tagless CYPA, GMPPNP loaded 6His-KRAS proteins, and GST-BRAF^RBD were mixed in a well of a 384-well assay plate at final concentrations of 50 nM, 6.25 nM and 1 nM, respectively. Compound was present in plate wells as a 16-point 3-fold dilution series starting at a final concentration of 10 μM and incubated for 3 hours. A mixture of MAb Anti-6His-XL665 (Cisbio, 61HISXLB) and Mab anti-GST-TB cryptate (Cisbio, 61GSTTLB) was then added at a final concentration of 6.67 nM and 0.21 nM, respectively, and the plate was incubated for an additional 1.5 hours. TR-FRET signal was read on a […] microplate reader (Ex320 nm, Em 665/615 nm). Compounds that facilitate disruption of the KRAS-BRAF complex were identified as those eliciting a decrease in the TR-FRET ratio relative to DMSO control wells.

[12] = target: KRAS G12D binding to BRAF (Homo sapiens (Human), UniProt P01116+P62937, G12D); experiment: KRAS-BRAF with CYPA (50 nM) interaction assay (TR-FRET), G12D; conditions: GMPPNP loaded 6His-KRAS, GST-BRAF RBD
Experimental: as §4

[13] = target: KRAS G12V binding to BRAF (Homo sapiens (Human), UniProt P01116+P62937, G12V); experiment: KRAS-BRAF with CYPA (50 nM) interaction assay (TR-FRET), G12V; conditions: GMPPNP loaded 6His-KRAS, GST-BRAF RBD
Experimental: as §4

[14] = Homo sapiens, SW-620, SW620 cells
[15] = Homo sapiens, SW-620, SW620, 72 hours

KRAS G12V binding to BRAF, sequence (P01116-2 other isoform, or with tags, fused parts or gaps G12V): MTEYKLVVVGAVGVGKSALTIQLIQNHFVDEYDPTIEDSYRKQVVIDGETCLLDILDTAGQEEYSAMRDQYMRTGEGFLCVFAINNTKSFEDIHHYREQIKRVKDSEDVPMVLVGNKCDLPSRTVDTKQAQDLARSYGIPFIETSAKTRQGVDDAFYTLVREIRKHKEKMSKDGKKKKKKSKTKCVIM
KRAS G12V binding to BRAF, sequence (P62937 whole entry): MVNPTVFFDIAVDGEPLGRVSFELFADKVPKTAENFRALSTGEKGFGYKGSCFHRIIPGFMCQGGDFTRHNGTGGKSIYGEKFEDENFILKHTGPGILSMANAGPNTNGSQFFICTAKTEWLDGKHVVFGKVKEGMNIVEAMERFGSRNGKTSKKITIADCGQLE
T1 sequence (P01116-2 other isoform, or with tags, fused parts or gaps G12C): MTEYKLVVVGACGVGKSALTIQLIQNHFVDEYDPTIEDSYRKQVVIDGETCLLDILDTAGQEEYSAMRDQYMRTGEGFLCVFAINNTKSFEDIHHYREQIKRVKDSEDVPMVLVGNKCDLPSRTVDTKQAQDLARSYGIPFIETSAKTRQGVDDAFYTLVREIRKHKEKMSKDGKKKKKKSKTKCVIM
T1 sequence (P62937 whole entry): as the sequence (P62937 whole entry) above
KRAS G12D binding to BRAF, sequence (P01116-2 other isoform, or with tags, fused parts or gaps G12D): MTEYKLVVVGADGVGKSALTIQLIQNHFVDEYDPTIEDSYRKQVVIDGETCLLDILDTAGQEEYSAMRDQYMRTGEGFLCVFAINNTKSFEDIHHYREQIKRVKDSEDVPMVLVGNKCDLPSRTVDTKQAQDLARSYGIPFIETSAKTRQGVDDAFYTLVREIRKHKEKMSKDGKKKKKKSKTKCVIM
KRAS G12D binding to BRAF, sequence (P62937 whole entry): as the sequence (P62937 whole entry) above

Row | conjugation with GSH (in words) [1] | half-life at 1 μM [2] | CL_hep (Human) [9] | Structure (SMILES) | IC50 ([3]; Homo sapiens) | IC50 ([4]; Homo sapiens) | IC50 [5, 14] | IC50 ([6]; Homo sapiens) | IC50 ([7]; Homo sapiens) | IC50 [8, 15] | Clearance Category ([9]; human hepatocytes) | IC50 [10] | IC50 [11] | IC50 [12] | IC50 [13] | IC50 [3] | IC50 [4] | IC50 ([5]; SW620 cells) | IC50 [6] | IC50 [7] | IC50 ([8]; SW620, 72 hours)
1 | formed conjugation with GSH | 5 h | 16.4 mL/min/kg | CCn1c(-c2cccnc2[C@H](C)OC)c2c3cc(ccc31)-c1cc(O)cc(c1)C[C@H](NC(=O)[C@H](C(C)C)N(C)C(=O)C1CN(C(=O)CCl)C1)C(=O)N1CCC[C@H](N1)C(=O)OCC(C)(C)C2 [RM461, reference compound] | 7 nM | > 10000 nM | > 10000 nM | 22 nM | 2710 nM | 4040 nM | high (CL_hep (mL/min/kg)>16.24 is high clearance) |  |  |  |  |  |  |  |  |  | 
2 | formed conjugation with GSH | 4.3 h | 15.5 mL/min/kg | CC(C)[C@@H](C(=O)N[C@H]1Cc2cc(O)cc(c2)-c2ccc3c(C(C)(C)C#N)cn(c3c2)CC(C)(C)COC(=O)[C@@H]2CCCN(N2)C1=O)N1CCCC2(CCN(C(=O)CCl)C2)C1=O (stereo partly shown) [RM351, reference compound] | 356 nM | > 10000 nM | > 10000 nM | 1390 nM | 2100 nM | 4810 nM |  |  |  |  |  |  |  |  |  |  | 
3 |  |  |  | CCn1c(-c2cc(N3CCN(C)CC3)cnc2[C@H](C)OC)c2c3cc(ccc31)-c1cc(O)cc(c1)C[C@H](NC(=O)[C@H](C(C)C)N(C)C(=O)[C@H]1CCN(C(=O)[C@H](F)Cl)C1)C(=O)N1CCC[C@H](N1)C(=O)OCC(C)(C)C2 (atropisomer, axis not shown; (M)) [Example 12, (3S)-1-[(2R)-2-chloro-2-fluoro-acetyl]-N-[(1S)-1-[[(8S,14S)-22-ethyl-4-hydroxy-(21M)-21-[2-[(1S)-1-methoxyethyl]-5-(4-methylpiperazin-1-yl)-3-pyridyl]-18,18-dimethyl-9,15-dioxo-16-oxa-10,22,28-triazapentacyclo[18.5.2.12,6.110,14.023,27]nonacosa-1(26),2,4,6(29),20,23(27),24-heptaen-8-yl]carbamoyl]-2-methyl-propyl]-N-methyl-pyrrolidine-3-carboxamide] | 6 nM | 10 nM | 12 nM | 5 nM | 16 nM | 16 nM |  | 37 nM | 2 nM | 6 nM | 3 nM |  |  |  |  |  | 
4 |  |  |  | CCn1c(-c2cc(N3CCN(C)CC3)cnc2[C@H](C)OC)c2c3cc(ccc31)-c1csc(n1)C[C@H](NC(=O)[C@H](C(C)C)N1CCCC3(CCN(C(=O)[C@H](F)Cl)C3)C1=O)C(=O)N1CCC[C@H](N1)C(=O)OCC(C)(C)C2 (stereo partly drawn) [Example 18, (2S)-2-[2-[(2R)-2-chloro-2-fluoro-acetyl]-6-oxo-2,7-diazaspiro[4.5]decan-7-yl]-N-[(7S,13S)-21-ethyl-(20M)-20-[2-[(1S)-1-methoxyethyl]-5-(4-methylpiperazin-1-yl)-3-pyridyl]-17,17-dimethyl-8,14-dioxo-15-oxa-4-thia-9,21,27,28-tetrazapentacyclo[17.5.2.12,5.19,13.022,26]octacosa-1(25),2,5(28),19,22(26),23-hexaen-7-yl]-3-methyl-butanamide] | 3 nM | 26 nM | 28 nM | 0.7 nM | 19 nM | 26 nM |  | 20 nM | 68 nM | > 10000 nM | > 10000 nM |  |  |  |  |  | 
5 |  |  |  | CO[C@@H](C)c1ncc(N2CCN(C)CC2)cc1-c1c2c3cc(ccc3n1CC(F)(F)F)-c1csc(n1)C[C@H](NC(=O)[C@H](C(C)C)N1CC[C@]3(CCN(C(=O)[C@H](F)Cl)C3)C1=O)C(=O)N1CCC[C@H](N1)C(=O)OCC(C)(C)C2 [Example 24, (2S)-2-[(5R)-7-[(2R)-2-chloro-2-fluoro-acetyl]-1-oxo-2,7-diazaspiro[4.4]nonan-2-yl]-N-[(7S,13S)-(20M)-20-[2-[(1S)-1-methoxyethyl]-5-(4-methylpiperazin-1-yl)-3-pyridyl]-17,17-dimethyl-8,14-dioxo-21-(2,2,2-trifluoroethyl)-15-oxa-4-thia-9,21,27,28-tetrazapentacyclo[17.5.2.12,5.19,13.022,26]octacosa-1(25),2,5(28),19,22(26),23-hexaen-7-yl]-3-methyl-butanamide] |  |  |  |  |  |  |  | 36 nM | 21 nM | > 10000 nM | > 10000 nM | 2 nM | 65 nM | 42 nM | < 0.6 nM | 886 nM | 489 nM
